In patent publication US12054498B2, “Heteroaromatic macrocyclic ether chemotherapeutic agents” (Nuvalent, Inc., priority 2020, dated 2024):

Columns and labels:
[1] = target: T1, Ba/F3 cells CD74-ROS1 G2032R (Homo sapiens, UniProt P08922, G2032R); assay: Ba/F3 cell proliferation assay, CD74-ROS1 G2032R; format: cell-based; settings: 72 hours, CellTiter-Glo
T1 construct: fusion of the C-terminus of ROS1 with the N-terminus of various partner proteins; host or cells: Ba/F3 (RIKEN), retroviral pMSCV-puro; the other entry of the earlier key: CD74 (P04233, HLA class II histocompatibility antigen gamma chain)
T1 sequence (P08922 1883-2347 G2032R limits assumed): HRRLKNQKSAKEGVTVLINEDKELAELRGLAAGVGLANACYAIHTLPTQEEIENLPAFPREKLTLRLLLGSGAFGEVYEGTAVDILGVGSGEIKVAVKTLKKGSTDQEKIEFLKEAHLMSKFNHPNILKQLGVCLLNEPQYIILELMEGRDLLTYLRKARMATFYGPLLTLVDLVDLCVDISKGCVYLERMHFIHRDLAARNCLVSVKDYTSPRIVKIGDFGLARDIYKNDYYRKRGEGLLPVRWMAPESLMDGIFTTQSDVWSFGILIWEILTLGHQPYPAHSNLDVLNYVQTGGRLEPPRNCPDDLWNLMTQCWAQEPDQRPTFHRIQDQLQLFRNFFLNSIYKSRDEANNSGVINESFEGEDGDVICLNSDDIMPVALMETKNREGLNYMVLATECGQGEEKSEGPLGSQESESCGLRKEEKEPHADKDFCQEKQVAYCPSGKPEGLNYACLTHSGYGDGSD
Procedure, shortened: (§1)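 Cells were seeded 1 day, then exposed to a 3-fold compound dilution series for 72 hours. Viability was read by CellTiter-Glo luminescence; IC50 came from four-parameter logistic fitting of percent inhibition.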

Ba/F3 cells TPM3-TRKA = target: T2, Ba/F3 cells TPM3-TRKA (Homo sapiens, UniProt P04629); assay: Ba/F3 cell proliferation assay, TPM3-TRKA; format: cell-based; settings: 72 hours, CellTiter-Glo, read-out: TPM3-NTRK1-wt IC50
T2 construct: host or cells: Ba/F3 (RIKEN), retroviral pMSCV-puro; the other entry of the earlier key: TPM3 (P06753, Tropomyosin alpha-3 chain)
T2 sequence (P04629 510-796 limits assumed): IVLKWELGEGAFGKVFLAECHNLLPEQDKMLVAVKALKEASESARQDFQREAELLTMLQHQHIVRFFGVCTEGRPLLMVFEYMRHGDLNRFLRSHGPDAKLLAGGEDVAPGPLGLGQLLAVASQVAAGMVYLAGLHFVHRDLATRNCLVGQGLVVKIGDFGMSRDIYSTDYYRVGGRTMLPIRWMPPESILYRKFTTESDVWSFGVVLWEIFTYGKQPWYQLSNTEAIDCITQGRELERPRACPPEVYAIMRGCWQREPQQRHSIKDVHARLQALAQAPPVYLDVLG
Procedure, shortened: (§2)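 IL-3-independent Ba/F3 lines stably expressing the fusion kinase (retroviral, puromycin-selected), 1,000 cells/well, treated with 3-fold compound dilutions for 72 h. Viability by CellTiter-Glo luminescence; IC50 from four-parameter logistic fit of percent inhibition.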

ROS1-G2032R = target: T3, ROS1-G2032R (Homo sapiens, UniProt P08922, G2032R); assay: Biochemical kinase assay, ROS1-G2032R kinase domain; settings: apparent inhibitory constant, Morrison equation; ATP 2 mM in substrate solution; read-out: ROS1-G2032R Ki^app
T3 construct: purchased SignalChem R14-12BG
T3 sequence (P08922 1945-2222 G2032R limits assumed): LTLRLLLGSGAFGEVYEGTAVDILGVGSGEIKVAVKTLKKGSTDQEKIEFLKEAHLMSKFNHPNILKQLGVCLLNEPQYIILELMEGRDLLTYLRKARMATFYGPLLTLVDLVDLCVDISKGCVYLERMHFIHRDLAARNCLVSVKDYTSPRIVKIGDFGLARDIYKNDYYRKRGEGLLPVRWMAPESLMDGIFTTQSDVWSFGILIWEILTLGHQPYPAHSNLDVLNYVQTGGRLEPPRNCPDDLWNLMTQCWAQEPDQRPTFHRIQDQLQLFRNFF
Procedure, shortened: (§3)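 Compounds, as 100-fold DMSO stocks, were dispensed first, then substrate mix was added (ATP 2 mM, AQT0101 26 μM, in 50 mM HEPES pH 7.5/10 mM MgCl2). Reactions ran at 30 °C with fluorescence logged every 2 min over 120 min. Apparent inhibition constants came from fitting rates to Morrison's tight-binding equation.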

[2] = target: T4, Ba/F3 cells EML4-ALK wt (variant 1) (Homo sapiens, UniProt Q9UM73); assay: Ba/F3 cell proliferation assay, EML4-ALK wt (variant 1); format: cell-based; settings: 72 hours, CellTiter-Glo
T4 construct: echinoderm microtubule-associated protein-like 4 (EML4) gene and the ALK tyrosine kinase domain; host or cells: Ba/F3 (RIKEN), retroviral pMSCV-puro; the other entry of the earlier key: EML4 (Q9HC35, Echinoderm microtubule-associated protein-like 4)
T4 sequence (Q9UM73 with tags, fused parts or gaps): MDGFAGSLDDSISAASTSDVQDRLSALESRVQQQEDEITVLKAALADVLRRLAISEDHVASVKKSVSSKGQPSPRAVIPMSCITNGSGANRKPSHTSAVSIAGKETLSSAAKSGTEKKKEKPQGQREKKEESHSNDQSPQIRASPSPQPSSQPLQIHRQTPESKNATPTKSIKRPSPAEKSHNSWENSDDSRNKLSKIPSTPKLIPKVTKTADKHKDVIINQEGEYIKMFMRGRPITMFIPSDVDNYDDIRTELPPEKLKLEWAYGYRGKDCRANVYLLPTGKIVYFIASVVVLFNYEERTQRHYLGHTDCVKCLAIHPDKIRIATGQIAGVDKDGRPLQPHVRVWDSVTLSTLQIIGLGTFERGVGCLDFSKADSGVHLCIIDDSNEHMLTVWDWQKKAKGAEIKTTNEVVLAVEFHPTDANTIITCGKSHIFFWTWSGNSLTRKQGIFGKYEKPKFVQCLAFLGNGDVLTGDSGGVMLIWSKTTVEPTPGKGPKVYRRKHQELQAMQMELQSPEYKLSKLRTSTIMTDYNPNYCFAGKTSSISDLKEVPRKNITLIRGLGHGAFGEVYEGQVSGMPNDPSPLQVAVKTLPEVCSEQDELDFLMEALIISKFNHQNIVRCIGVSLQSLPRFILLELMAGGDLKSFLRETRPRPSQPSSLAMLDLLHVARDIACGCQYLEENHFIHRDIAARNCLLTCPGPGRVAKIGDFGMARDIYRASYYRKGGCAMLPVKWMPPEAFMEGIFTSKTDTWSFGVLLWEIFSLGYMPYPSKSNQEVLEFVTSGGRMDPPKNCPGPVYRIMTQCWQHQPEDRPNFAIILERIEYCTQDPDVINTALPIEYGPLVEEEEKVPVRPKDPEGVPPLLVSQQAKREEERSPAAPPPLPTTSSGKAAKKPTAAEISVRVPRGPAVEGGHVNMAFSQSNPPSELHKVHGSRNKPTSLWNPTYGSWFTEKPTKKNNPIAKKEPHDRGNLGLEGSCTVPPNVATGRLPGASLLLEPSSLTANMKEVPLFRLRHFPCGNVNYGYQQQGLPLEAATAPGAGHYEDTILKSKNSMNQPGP
Procedure, shortened: as §2

TRKA-wt = target: T5, TRKA-wt (Homo sapiens, UniProt P04629); assay: Biochemical kinase assay, TRKA-wt kinase domain; settings: apparent inhibitory constant, Morrison equation; ATP 2 mM in substrate solution; read-out: TRKA-wt Ki^app
T5 construct: or TRKA-wt (1 nM, BPS Bio, 40280) kinase domains in buffer; purchased BPS Bio 40280
T5 sequence (P04629 510-781 limits assumed): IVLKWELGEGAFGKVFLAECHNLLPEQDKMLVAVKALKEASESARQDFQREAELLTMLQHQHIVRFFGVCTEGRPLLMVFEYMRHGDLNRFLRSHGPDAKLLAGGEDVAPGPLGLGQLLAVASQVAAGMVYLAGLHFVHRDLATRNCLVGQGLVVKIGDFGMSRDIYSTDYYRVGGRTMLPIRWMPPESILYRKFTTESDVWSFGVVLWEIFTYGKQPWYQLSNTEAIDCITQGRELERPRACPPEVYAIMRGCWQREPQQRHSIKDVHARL
Procedure, shortened: (§4)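 Kinase domains (in kinase solution: ROS1-G2032R 0.5 nM, ROS1-wt 0.6 nM, TRKA 1 nM, ALK L1196M/G1202R 3 nM) were mixed with compound and a substrate solution of 2 mM ATP plus 26 μM fluorogenic AQT0101 (ALK, ROS1) or AQT0104 (TRKA) in HEPES pH 7.5/MgCl2. Fluorescence was followed for 120 min at 30° C; Ki^app was obtained by Morrison fit of initial rates.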

ALK-wt = target: T6, ALK-wt (Homo sapiens, UniProt Q9UM73); assay: Biochemical kinase assay, ALK-wt kinase domain; settings: apparent inhibitory constant, Morrison equation; ATP 2 mM in substrate solution; read-out: ALK-wt Ki^app
T6 construct: purchased Carna 08-518
T6 sequence (Q9UM73 1116-1392 limits assumed): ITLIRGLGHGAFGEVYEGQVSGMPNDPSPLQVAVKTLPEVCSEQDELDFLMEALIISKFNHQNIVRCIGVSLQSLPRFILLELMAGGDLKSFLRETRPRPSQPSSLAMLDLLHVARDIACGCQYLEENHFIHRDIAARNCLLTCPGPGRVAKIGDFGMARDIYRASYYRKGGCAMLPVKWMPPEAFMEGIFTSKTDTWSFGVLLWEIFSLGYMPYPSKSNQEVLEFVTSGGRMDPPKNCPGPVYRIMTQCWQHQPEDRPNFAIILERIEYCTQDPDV
Procedure, shortened: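 Apparent Ki values come from fitting initial reaction rates against inhibitor concentration to the Morrison equation. Rates were taken from the linear phase of fluorogenic substrate phosphorylation (AQT0101 for ALK and ROS1, AQT0104 for TRKA; 26 μM in substrate solution with 2 mM ATP), monitored at 485 nm over 120 min at 30° C.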

ROS1-wt = target: T7, ROS1-wt (Homo sapiens, UniProt P08922); assay: Biochemical kinase assay, ROS1-wt kinase domain; settings: apparent inhibitory constant, Morrison equation; ATP 2 mM in substrate solution; read-out: ROS1-wt Ki^app
T7 construct: purchased Carna 08-163
T7 sequence (P08922 1945-2222 limits assumed): as the sequence (P08922 1945-2222 G2032R limits assumed) above, with R88G counted along it
Procedure, shortened: as §3

[3] = target: T8, Ba/F3 cells CD74-ROS1 wild-type (wt) (Homo sapiens, UniProt P08922); assay: Ba/F3 cell proliferation assay, CD74-ROS1 wild-type; format: cell-based; settings: 72 hours, CellTiter-Glo
T8 construct: fusion of the C-terminus of ROS1 with the N-terminus of various partner proteins; host or cells: Ba/F3 (RIKEN), retroviral pMSCV-puro; the other entry of the earlier key: CD74 (P04233, HLA class II histocompatibility antigen gamma chain)
T8 sequence (P08922 1883-2347 limits assumed): as the sequence (P08922 1883-2347 G2032R limits assumed) above, with R150G counted along it
Procedure, shortened: as §1

ALK L1196M/G1202R = target: T9, ALK L1196M/G1202R (Homo sapiens, UniProt Q9UM73, G1202R/L1196M); assay: Biochemical kinase assay, ALK L1196M/G1202R kinase domain; settings: apparent inhibitory constant, Morrison equation; ATP 2 mM in substrate solution; read-out: ALK-L1196M-G1202R Ki^app
T9 construct: purchased SignalChem A19-12NG
T9 sequence (Q9UM73 1116-1392 L1196M/G1202R limits assumed): as the sequence (Q9UM73 1116-1392 limits assumed) above, with L81M, G87R counted along it
Procedure, shortened: as §4

[4] = system: TPM3-NTRK1-wt IC50 / primary target IC50 (e.g. CD74-ROS1-wt); assay: TRKA selectivity in Ba/F3 cells (TRKA potency divided by primary target potency); format: cell-based; settings: for TPM3-NTRK1-wt/CD74-ROS1-G2032R selectivity ratio: TRKA potency / CD74-ROS1-G2032R potency; for TPM3-NTRK1-wt/CD74-ROS1-wt selectivity ratio: TRKA potency / CD74-ROS1-wt potency; for TPM3-NTRK1-wt/EML4-ALK-L1196M-G1202R selectivity ratio: TRKA potency / EML4-ALK-L1196M-G1202R potency; for TPM3-NTRK1-wt/EML4-ALK-wt selectivity ratio: TRKA potency / EML4-ALK-wt potency
Procedure: TRKA selectivity was calculated by dividing a compound's TRKA potency by its primary target potency (e.g. TPM3-NTRK1-wt IC50/CD74-ROS1-wt IC50). Compound selectivity can be interpreted by binning ratio values: bin A for very high selectivity, ratio >30-fold; bin B for high selectivity, ratio >10-fold; bin C for moderate selectivity, ratio ≥1; and bin D for low selectivity, ratio <1. […] (nd=not determined).

[5] = target: T10, Ba/F3 cells EML4-ALK L1196M/G1202R (variant 1) (Homo sapiens, UniProt Q9UM73, G1202R/L1196M); assay: Ba/F3 cell proliferation assay, EML4-ALK L1196M/G1202R (variant 1); format: cell-based; settings: 72 hours, CellTiter-Glo
T10 construct: echinoderm microtubule-associated protein-like 4 (EML4) gene and the ALK tyrosine kinase domain; host or cells: Ba/F3 (RIKEN), retroviral pMSCV-puro; the other entry of the earlier key: EML4 (Q9HC35, Echinoderm microtubule-associated protein-like 4)
T10 sequence (Q9UM73 with tags, fused parts or gaps L1196M/G1202R): as the sequence (Q9UM73 with tags, fused parts or gaps) above, with L635M, G641R counted along it
Procedure, shortened: as §2

Structure (SMILES)	IC50 [1] [nM]	IC50 (Ba/F3 cells TPM3-TRKA) [nM]	Ki (ROS1-G2032R) [nM]	IC50 [2] [nM]	Ki (TRKA-wt) [nM]	Ki (ALK-wt) [nM]	Ki (ROS1-wt) [nM]	IC50 [3] [nM]	Ki (ALK L1196M/G1202R) [nM]	TPM3-NTRK1-wt/CD74-ROS1-G2032R selectivity ratio [4]	TPM3-NTRK1-wt/CD74-ROS1-wt selectivity ratio [4]	TPM3-NTRK1-wt/EML4-ALK-L1196M-G1202R selectivity ratio [4]	TPM3-NTRK1-wt/EML4-ALK-wt selectivity ratio [4]	IC50 [5] [nM]
CCn1nc(C)c2c1-c1cnc(N)c(c1)O[C@H](C)c1cc(F)ccc1-c1nn(C)nc1C2 [Example 29, (19R)-3-ethyl-16-fluoro-5,10,19-trimethyl-20-oxa-3,4,9,10,11,23-hexaazapentacyclo[19.3.1.0^2,^6.0^8,^12.0^13,^18]pentacosa-1(24),2(6),4,8,11,13,15,17,21(25),22-decaen-22-amine]	0.1 to 50	50 to 500	< 50	0.1 to 50	50 to 500	< 50	< 50	0.1 to 50	< 50	A (bin A for very high selectivity, ratio >30-fold)	A (bin A for very high selectivity, ratio >30-fold)	C (bin C for moderate selectivity, ratio ≥1)	A (bin A for very high selectivity, ratio >30-fold)	0.1 to 50
CCn1ncc2c1-c1cnc(N)c(c1)O[C@H](C)c1cc(F)ccc1-n1nc(C)nc1C2 [Example 40, (19R)-3-ethyl-16-fluoro-10,19-dimethyl-20-oxa-3,4,9,11,12,23-hexaazapentacyclo[19.3.1.0^2,^6.0^8,^12.0^13,^18] pentacosa 1(24),2(6),4,8,10,13,15,17,21(25),22-decaen-22-amine]	0.1 to 50	50 to 500	< 50	0.1 to 50	50 to 500	< 50	< 50	0.1 to 50	< 50	A (bin A for very high selectivity, ratio >30-fold)	A (bin A for very high selectivity, ratio >30-fold)	C (bin C for moderate selectivity, ratio ≥1)	B (bin B for high selectivity, ratio >10-fold)	50 to 500
CCn1ncc2c1-c1cnc(N)c(c1)O[C@H](C)c1cc(F)ccc1-c1cc(C)nn1C2 [Example 4, (19R)-3-ethyl-16-fluoro-10,19-dimethyl-20-oxa-3,4,8,9,23-pentaazapentacyclo[19.3.1.0^2,^6.0^8,^12.0^13,^18]pentacosa-1(24),2(6),4,9,11,13,15,1 7,21 (25),22-decaen-22-amine]	0.1 to 50	50 to 500	< 50	0.1 to 50	50 to 500	< 50	< 50	0.1 to 50	< 50	A (bin A for very high selectivity, ratio >30-fold)	A (bin A for very high selectivity, ratio >30-fold)	C (bin C for moderate selectivity, ratio ≥1)	B (bin B for high selectivity, ratio >10-fold)	50 to 500
C[C@H]1Oc2cc(cnc2N)-c2c(CC3CC3)nn(C)c2Cc2nn(C)nc2-c2ccc(F)cc21 [Example 100, (19R)-3-(cyclopropylmethyl)-16-fluoro-5,10.19-trimethyl-20-oxa-4,5,9,10,11 23-hexaazapentacyclo[19.3.1.0^2,^6.0^8,^12.0^13,^18]pentacosa-1(24),2(6) 3,8,11,13,15,17,21(25),22-decaen-22-amine]	0.1 to 50	> 500	< 50	0.1 to 50	> 500	< 50	< 50	0.1 to 50	< 50	A (bin A for very high selectivity, ratio >30-fold)	A (bin A for very high selectivity, ratio >30-fold)	A (bin A for very high selectivity, ratio >30-fold)	A (bin A for very high selectivity, ratio >30-fold)	0.1 to 50
C[C@H]1Oc2cc(cnc2N)-c2c(C3CCC3)nnn2Cc2nn(C)nc2-c2ccc(F)cc21 [Example 30, (19R)-3-cyclobutyl-16-fluoro-10,19-dimethyl-20-oxa-4,5,6,9,10,11,23-heptaazapentacyclo[19.3.1.0^2,^6.0^8,^12.0^13,^18]pentacosa-1(24),2,4,8,11,13,15,17,21(25),22-decaen-22-amine]	0.1 to 50	> 500	< 50	0.1 to 50	> 500	< 50	< 50	0.1 to 50	< 50	A (bin A for very high selectivity, ratio >30-fold)	A (bin A for very high selectivity, ratio >30-fold)	C (bin C for moderate selectivity, ratio ≥1)	A (bin A for very high selectivity, ratio >30-fold)	50 to 500
CCn1ncc2c1-c1cnc(N)c(c1)O[C@H](C)c1cc(F)ccc1-c1nsnc1C2 [Example 62, (19R)-3-ethyl-16-fluoro-19-methyl-20-oxa-10-thia-3,4,9,11,23-pentaazapentacyclo[19.3.1.0^2,^6.0^8,^12.0^13,^18]pentacosa-1(24),2(6),4,8,11,13,15,17,21(25),22-decaen-22-amine]	0.1 to 50	50 to 500	< 50	0.1 to 50	50 to 500	< 50	< 50	0.1 to 50	< 50	A (bin A for very high selectivity, ratio >30-fold)	A (bin A for very high selectivity, ratio >30-fold)	C (bin C for moderate selectivity, ratio ≥1)	A (bin A for very high selectivity, ratio >30-fold)	0.1 to 50
